According to paper PMC8983325 (Protein & Cell, 2022):
Several values for one entry are separate records, joined by “and”; a condition that tells them apart may be missing. Equal values may be shown once. Read-outs that look alike come from different tables or passages of the source.

Legend:
[1] = system: SARS-CoV-2; design: species or system golden Syrian hamster; settings: hamster, in vivo
[2] = system: SARS-CoV-2; assay type: cell-based
[3] = system: hCoV-OC43; assay type: cell-based
[4] = system: ISG15 and PKR expression; assay type: cell-based
[5] = system: MERS-CoV; assay type: cell-based
[6] = system: ISG15 and PKR expression
[7] = system: hCoV-229E; assay type: cell-based
[8] = target: T1, SARS2-PLpro (Severe acute respiratory syndrome coronavirus 2, UniProt P0DTD1); assay type: binding, SARS-CoV-2
[9] = target: T1, SARS2-PLpro; assay type: biochemical
[10] = system: SARS-CoV-2; assay: microbe, parasite or virus in culture; assay type: cell-based
[11] = system: MERS-CoV; assay type: cell-based; remark: listed apart in the source
[12] = target: T1, SARS2-PLpro; assay type: biochemical; settings: read-out: IC50 against SARS2-PLpro
[13] = target: MERS-PLpro_WT (Middle East respiratory syndrome-related coronavirus, UniProt K9N7C7); assay type: binding
Sequence of MERS-PLpro_WT (K9N7C7 1552-1823 limits assumed): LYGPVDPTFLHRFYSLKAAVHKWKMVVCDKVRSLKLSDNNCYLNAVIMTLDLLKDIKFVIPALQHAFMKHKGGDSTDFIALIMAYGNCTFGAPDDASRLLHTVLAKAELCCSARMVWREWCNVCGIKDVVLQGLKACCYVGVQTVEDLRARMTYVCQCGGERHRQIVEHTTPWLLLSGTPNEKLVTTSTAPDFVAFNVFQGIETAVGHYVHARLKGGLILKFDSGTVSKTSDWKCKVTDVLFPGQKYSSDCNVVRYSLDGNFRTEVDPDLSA

[14] = system: MERS-CoV; assay: microbe, parasite or virus in culture; assay type: cell-based
[15] = system: SARS-CoV-2; assay type: cell-based; remark: listed apart in the source
[16] = system: cellular proteases (serine, cysteine and acid proteases); assay type: biochemical
[17] = system: human DUBs; assay type: biochemical
[18] = system: Huh-7, VeroE6/TMPRSS2, Calu-3, Caco-2, BSC-1 cells and human embryonic lung fibroblasts (HELF)
[19] = system: PLpro-mediated IFN suppression (SARS2-PLpro, MERS-PLpro); assay type: cell-based
[20] = target: MERS-PLpro (Middle East respiratory syndrome-related coronavirus, UniProt K9N7C7); assay type: biochemical
Sequence of MERS-PLpro (K9N7C7 1552-1823 limits assumed): as above

[21] = Severe acute respiratory syndrome coronavirus 2, read-out: EC50 anti-SARS-CoV-2

Compound: O=C(Nc1ccccc1Cl)c1sc(=S)n2c1[nH]c(=O)c1ccccc12 [F0213]
- decrease of infectious viral PFU in lung tissues [1]: 1–2 log10
- lung histology scores [1]: significantly reduced
- suppression of SARS-CoV-2 genome copies (normalized by β-actin) in the lungs [1]: comparable degree of suppression
- reduction of SARS-CoV-2 viral yields [2]: more than 1 log10
- decrease of viral yields, hCoV-OC43 [3]: around 1.5 log10
- transcription levels of ISG15 and PKR, MERS-CoV-infected Huh-7 cells [4]: reduced
- decrease of viral yields, MERS-CoV [5]: about 3 log10
- expression of ISG15 and PKR, SARS-CoV-2-infected Caco-2 cells [6]: significantly enhanced
- decrease of viral yields, hCoV-229E [7]: about 2 log10
- KD of F0213 to SARS2-PLpro pre-incubated with GRL0617 [8]: undetectable
- binding affinity to SARS2-PLpro relative to GRL0617 (fold less) [8]: around 5 fold
- Kd ([8]; read-out: Kd, SARS2-PLpro): 40.5 µM
- modification of PLpro by HA-Ub-VS [9]: almost completely eliminated
- EC50 [10, 21]: 4.55 µM
- EC50 ([10]; read-out: EC50 anti-SARS-CoV-2): 4.55 µM and 4.5 µM
- NP antigen immunofluorescence, MERS-CoV-infected Vero cells [11]: significant inhibition of virus replication
- IC50 [12]: 7.4 µM
- Kd ([13]; read-out: KD, MERS-PLpro WT): 950 nM
- EC50 ([14]; Middle East respiratory syndrome-related coronavirus, read-out: antiviral EC50 against MERS-CoV): 1540 nM
- NP antigen immunofluorescence, SARS-CoV-2-infected Vero cells [15]: significant inhibition of virus replication
- cellular protease activity [16]: not affected
- modification of cellular DUBs by HA-Ub-VS [17]: no change
- cytotoxicity in the matching cell lines [18]: negligible cytotoxicity
- IFN-β, IRF3 and NF-κB reporter gene expression under PLpro suppression [19]: rescued the genes expression in a dose-dependent manner

Compound: Cc1cccc(NC(=O)c2sc(=S)n3c2[nH]c(=O)c2cc4c(cc23)OCO4)c1 [F0393]
- EC50 [10, 21]: 15.6 µM
- IC50 [12]: 15.8 µM

Compound: N#C[C@@]1(c2ccc3c(N)ncnn23)O[C@H](CO)[C@@H](O)[C@H]1O [GS-441524, reference compound]
- decrease of infectious viral PFU in lung tissues [1]: comparable
- lung histology scores [1]: significantly reduced
- suppression of SARS-CoV-2 genome copies (normalized by β-actin) in the lungs [1]: comparable degree of suppression

Compound: CCC(CC)COC(=O)[C@H](C)N[P@](=O)(OC[C@H]1O[C@@](C#N)(c2ccc3c(N)ncnn23)[C@H](O)[C@@H]1O)Oc1ccccc1 [remdesivir]
- NP antigen immunofluorescence, MERS-CoV-infected Vero cells [11]: significant inhibition of virus replication
- NP antigen immunofluorescence, SARS-CoV-2-infected Vero cells [15]: significant inhibition of virus replication

Compound: GRL0617 [reference compound]
- NP antigen immunofluorescence, MERS-CoV-infected Vero cells [11]: marginal virus suppression
- effect on MERS-PLpro activity [20]: ineffective
- KD, MERS-PLpro WT [13]: no binding affinity
- inhibition against MERS-CoV [14]: no inhibition
- NP antigen immunofluorescence, SARS-CoV-2-infected Vero cells [15]: marginal virus suppression
